Assay results: the supplement of paper PMC8671470

Tests used:
Assay in all cases: cell viability (% survival relative to DMSO control); higher = less cytotoxic
Settings in all cases: 72 h
Mono-Mac-6 = system: Mono-Mac-6
Experimental: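 8x8 drug-combination matrices (0–5000 nM; rosiglitazone and lestaurtinib 0–1000 nM) were run in Mono-Mac-6 cells for 72 h with CellTiter-Glo read-out. Survival is normalised to DMSO and 10 µM bortezomib and clipped at 100%.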

BV-173 = system: BV-173
Experimental: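 8x8 drug-combination matrices (0–5000 nM; rosiglitazone and lestaurtinib 0–1000 nM) were run in BV-173 cells for 72 h with CellTiter-Glo read-out. Survival is normalised to DMSO and 10 µM bortezomib and clipped at 100%.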

MV4-11 = system: MV4-11
Experimental: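 8x8 drug-combination matrices (0–5000 nM; rosiglitazone and lestaurtinib 0–1000 nM) were run in MV4-11 cells for 72 h with CellTiter-Glo read-out. Survival is normalised to DMSO and 10 µM bortezomib and clipped at 100%.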

O=C(O)CC[N+](=O)[O-] [3-nitropropionic acid] + CCn1c(=Cc2cccc[n+]2CC)sc(=C2Sc3ccccc3N2C)c1=O [MKT 077]
cell viability [%]
Settings | drug1 concentration 5 nM | drug1 concentration 10 nM | drug1 concentration 50 nM | drug1 concentration 100 nM | drug1 concentration 500 nM | drug1 concentration 1000 nM | drug1 concentration 5000 nM
BV-173, drug2 concentration 5 nM | 83.1 | 78.6 | 88.7 | > 100 | > 100 | 83.5 | 59.7
BV-173, drug2 concentration 10 nM | 97.8 | > 100 | > 100 | 94.6 | 72.9 | 92.9 | > 100
BV-173, drug2 concentration 50 nM | 93.3 | > 100 | > 100 | > 100 | > 100 | 99.5 | > 100
BV-173, drug2 concentration 100 nM | 78.1 | 85.8 | > 100 | 94.3 | > 100 | > 100 | 87.9
BV-173, drug2 concentration 500 nM | > 100 | 84.2 | 84.2 | 86.4 | > 100 | 76.6 | > 100
BV-173, drug2 concentration 1000 nM | > 100 | > 100 | > 100 | > 100 | 89.1 | 88.9 | 74.4
BV-173, drug2 concentration 5000 nM | > 100 | 72 | > 100 | > 100 | > 100 | > 100 | > 100
MV4-11, drug2 concentration 5 nM | 89.1 | 97 | > 100 | 86.8 | > 100 | > 100 | 75.6
MV4-11, drug2 concentration 10 nM | 89.2 | > 100 | > 100 | 83.7 | 98.1 | > 100 | > 100
MV4-11, drug2 concentration 50 nM | > 100 | > 100 | > 100 | 84.1 | > 100 | 81.3 | > 100
MV4-11, drug2 concentration 100 nM | 97.3 | > 100 | 93.7 | 84.3 | > 100 | 88.2 | 68.4
MV4-11, drug2 concentration 500 nM | > 100 | 96 | 92.7 | > 100 | 94.3 | 91.4 | 86.1
MV4-11, drug2 concentration 1000 nM | 89.6 | 97.4 | 92.8 | > 100 | 97.6 | > 100 | 65.1
MV4-11, drug2 concentration 5000 nM | 72.5 | 80 | 96.6 | > 100 | 87.2 | 97.2 | 79.8
Mono-Mac-6, drug2 concentration 5 nM | > 100 | 98.1 | > 100 | 90.2 | > 100 | > 100 | 90.3
Mono-Mac-6, drug2 concentration 10 nM | > 100 | > 100 | > 100 | > 100 | > 100 | > 100 | > 100
Mono-Mac-6, drug2 concentration 50 nM | > 100 | > 100 | > 100 | 91 | 96.5 | 86 | > 100
Mono-Mac-6, drug2 concentration 100 nM | 84.8 | > 100 | > 100 | > 100 | > 100 | > 100 | 76.8
Mono-Mac-6, drug2 concentration 500 nM | 99.9 | 82.8 | > 100 | > 100 | > 100 | 84.4 | > 100
Mono-Mac-6, drug2 concentration 1000 nM | > 100 | > 100 | > 100 | > 100 | 96.7 | 87 | 82.4
Mono-Mac-6, drug2 concentration 5000 nM | 79.1 | 74.4 | > 100 | > 100 | 63.8 | > 100 | > 100
